# Measurements as given in US10597388B2, “Pyridazinone herbicides” (FMC CORPORATION, priority 2014, dated 2020).
# Tests used:
# Test in all cases: Test C greenhouse herbicide test, pre- and postemergence
# Format in all cases: in vivo
# corn (Zea mays) = tested on: corn (Zea mays)
# Procedure, shortened: (§1)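 Seeds sown in loam–sand blend treated preemergence; plants in peat-based medium sprayed postemergence at 2–18 cm (1- to 4-leaf stage); chemicals in non-phytotoxic solvent with surfactant. Greenhouse 13–15 d, then visual rating versus controls on 0–100 scale (0 no effect, 100 complete control).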
# [1] = tested on: lambsquarters (Chenopodium album)
# Procedure, shortened: as §1
# [2] = tested on: pigweed (Amaranthus retroflexus)
# Procedure, shortened: as §1
# [3] = tested on: oilseed rape (Brassica napus)
# Procedure, shortened: as §1
# [4] = tested on: johnsongrass (Sorghum halepense)
# Procedure, shortened: as §1
# [5] = tested on: waterhemp (common waterhemp, Amaranthus rudis)
# Procedure, shortened: as §1
# [6] = tested on: foxtail, giant (giant foxtail, Setaria faberii)
# Procedure, shortened: as §1
# [7] = tested on: barnyardgrass (Echinochloa crus-galli)
# Procedure, shortened: as §1
# [8] = tested on: blackgrass (Alopecurus myosuroides)
# Procedure, shortened: as §1
# [9] = tested on: velvetleaf (Abutilon theophrasti)
# Procedure, shortened: as §1
# [10] = tested on: crabgrass, large (large crabgrass, Digitaria sanguinalis)
# Procedure, shortened: as §1
# [11] = tested on: galium (catchweed bedstraw, Galium aparine)
# Procedure, shortened: as §1
# [12] = tested on: ryegrass, Italian (Italian ryegrass, Lolium multiflorum)
# Procedure, shortened: as §1
# [13] = tested on: nutsedge, yellow (yellow nutsedge, Cyperus esculentus)
# Procedure, shortened: as §1
# [14] = tested on: morningglory (Ipomoea coccinea)
# Procedure, shortened: as §1
# [15] = tested on: ragweed (common ragweed, Ambrosia elatior)
# Procedure, shortened: as §1
# [16] = Postemergence, 31 g ai/ha, 0 to 100 scale (0 no effect, 100 complete control)
# [17] = Postemergence, 125 g ai/ha, scale 0 to 100, 0 is no effect, 100 is complete control
# [18] = Postemergence, 250 g ai/ha, scale 0 to 100, 0 no effect, 100 complete control, 13 to 15 d
# [19] = Preemergence, 31 g ai/ha, scale 0 to 100, 0 is no effect, 100 is complete control
# [20] = Preemergence, 62 g ai/ha, scale 0 to 100, 0 is no effect, 100 is complete control
# [21] = Preemergence, 125 g ai/ha, scale 0 to 100, 0 is no effect, 100 is complete control
# [22] = Preemergence, 250 g ai/ha, scale 0 to 100 (0 no effect, 100 complete control)
# [23] = postemergence, 62 g ai/ha, scale 0 to 100, 0 no effect, 100 complete control
structure (smiles),measurement,setting,value
Cc1cc(C)c2sc(C)c(-c3c(OC(=O)OCCCl)c(C)nn(C)c3=O)c2c1 [Compound 85],Corn plant response rating,corn (Zea mays); [16],0
same,"Plant response rating, Corn",corn (Zea mays); [17],0
same,"Plant response rating, Corn",corn (Zea mays); [18],5
same,"Plant response rating, Corn",corn (Zea mays); [19],0
same,"Plant response rating, Corn",corn (Zea mays); [20],10
same,"Plant response rating, Corn",corn (Zea mays); [21],0
same,Corn plant response rating,corn (Zea mays); [22],10
same,Corn plant response rating,corn (Zea mays); [23],0
same,"Plant response rating, Lambsquarters",[1]; [17],100
same,"Plant response rating, Lambsquarters",[1]; [18],100
same,"Plant response rating, Lambsquarters",[1]; [19],85
same,"Plant response rating, Lambsquarters",[1]; [20],90
same,"Plant response rating, Lambsquarters",[1]; [21],90
same,Lambsquarters plant response rating,[1]; [22],100
same,Lambsquarters plant response rating,[1]; [23],98
same,"Plant response rating, Pigweed",[2]; [17],85
same,"Plant response rating, Pigweed",[2]; [18],90
same,"Plant response rating, Pigweed",[2]; [19],100
same,"Plant response rating, Pigweed",[2]; [20],100
same,"Plant response rating, Pigweed",[2]; [21],100
same,Pigweed plant response rating,[2]; [22],100
same,Pigweed plant response rating,[2]; [23],85
same,"Plant response rating, Oilseed Rape",[3]; [17],10
same,"Plant response rating, Oilseed Rape",[3]; [18],15
same,"Plant response rating, Oilseed Rape",[3]; [19],5
same,"Plant response rating, Oilseed Rape",[3]; [20],85
same,"Plant response rating, Oilseed Rape",[3]; [21],40
same,Oilseed Rape plant response rating,[3]; [22],90
same,Oilseed Rape plant response rating,[3]; [23],10
same,"Plant response rating, Johnsongrass",[4]; [17],50
same,"Plant response rating, Johnsongrass",[4]; [18],25
same,"Plant response rating, Johnsongrass",[4]; [19],40
same,"Plant response rating, Johnsongrass",[4]; [20],30
same,"Plant response rating, Johnsongrass",[4]; [21],65
same,Johnsongrass plant response rating,[4]; [22],40
same,Johnsongrass plant response rating,[4]; [23],15
same,"Plant response rating, Waterhemp",[5]; [17],85
same,"Plant response rating, Waterhemp",[5]; [18],85
same,"Plant response rating, Waterhemp",[5]; [19],60
same,"Plant response rating, Waterhemp",[5]; [20],80
same,"Plant response rating, Waterhemp",[5]; [21],90
same,Waterhemp plant response rating,[5]; [22],100
same,Waterhemp plant response rating,[5]; [23],65
same,"Plant response rating, Foxtail, Giant",[6]; [17],90
same,"Plant response rating, Foxtail, Giant",[6]; [18],90
same,"Plant response rating, Foxtail, Giant",[6]; [19],90
same,"Plant response rating, Foxtail, Giant",[6]; [20],98
same,"Plant response rating, Foxtail, Giant",[6]; [21],100
same,"Foxtail, Giant plant response rating",[6]; [22],100
same,"Foxtail, Giant plant response rating",[6]; [23],85
same,Barnyardgrass plant response rating,[7]; [16],25
same,"Plant response rating, Barnyardgrass",[7]; [17],40
same,"Plant response rating, Barnyardgrass",[7]; [18],50
same,"Plant response rating, Barnyardgrass",[7]; [19],35
same,"Plant response rating, Barnyardgrass",[7]; [20],60
same,"Plant response rating, Barnyardgrass",[7]; [21],80
same,Barnyardgrass plant response rating,[7]; [22],90
same,Barnyardgrass plant response rating,[7]; [23],45
same,Blackgrass plant response rating,[8]; [16],70
same,"Plant response rating, Blackgrass",[8]; [17],90
same,"Plant response rating, Blackgrass",[8]; [18],90
same,"Plant response rating, Blackgrass",[8]; [19],50
same,"Plant response rating, Blackgrass",[8]; [20],85
same,"Plant response rating, Blackgrass",[8]; [21],90
same,Blackgrass plant response rating,[8]; [22],90
same,Blackgrass plant response rating,[8]; [23],80
same,"Plant response rating, Velvetleaf",[9]; [17],85
same,"Plant response rating, Velvetleaf",[9]; [18],95
same,"Plant response rating, Velvetleaf",[9]; [19],50
same,"Plant response rating, Velvetleaf",[9]; [20],80
same,"Plant response rating, Velvetleaf",[9]; [21],85
same,Velvetleaf plant response rating,[9]; [22],90
same,Velvetleaf plant response rating,[9]; [23],85
same,"Plant response rating, Crabgrass, Large",[10]; [17],40
same,"Plant response rating, Crabgrass, Large",[10]; [18],45
same,"Plant response rating, Crabgrass, Large",[10]; [19],80
same,"Plant response rating, Crabgrass, Large",[10]; [20],85
same,"Plant response rating, Crabgrass, Large",[10]; [21],80
same,"Crabgrass, Large plant response rating",[10]; [22],85
same,"Crabgrass, Large plant response rating",[10]; [23],30
same,"Plant response rating, Galium",[11]; [17],100
same,"Plant response rating, Galium",[11]; [18],100
same,"Plant response rating, Galium",[11]; [19],90
same,"Plant response rating, Galium",[11]; [20],90
same,"Plant response rating, Galium",[11]; [21],95
same,Galium plant response rating,[11]; [22],95
same,Galium plant response rating,[11]; [23],100
same,"Plant response rating, Ryegrass, Italian",[12]; [17],90
same,"Plant response rating, Ryegrass, Italian",[12]; [18],95
same,"Plant response rating, Ryegrass, Italian",[12]; [19],85
same,"Plant response rating, Ryegrass, Italian",[12]; [20],85
same,"Plant response rating, Ryegrass, Italian",[12]; [21],90
same,"Ryegrass, Italian plant response rating",[12]; [22],90
same,"Ryegrass, Italian plant response rating",[12]; [23],90
same,"Plant response rating, Nutsedge, Yellow",[13]; [17],95
same,"Plant response rating, Nutsedge, Yellow",[13]; [18],90
same,"Plant response rating, Nutsedge, Yellow",[13]; [19],70
same,"Plant response rating, Nutsedge, Yellow",[13]; [20],85
same,"Plant response rating, Nutsedge, Yellow",[13]; [21],75
same,"Nutsedge, Yellow plant response rating",[13]; [22],80
same,"Nutsedge, Yellow plant response rating",[13]; [23],85
same,"Plant response rating, Morningglory",[14]; [17],100
same,"Plant response rating, Morningglory",[14]; [18],100
same,"Plant response rating, Morningglory",[14]; [19],85
same,"Plant response rating, Morningglory",[14]; [20],90
same,"Plant response rating, Morningglory",[14]; [21],95
same,Morningglory plant response rating,[14]; [22],98
same,Morningglory plant response rating,[14]; [23],98
same,"Plant response rating, Ragweed",[15]; [17],85
same,"Plant response rating, Ragweed",[15]; [18],90
same,"Plant response rating, Ragweed",[15]; [19],80
same,"Plant response rating, Ragweed",[15]; [20],90
same,"Plant response rating, Ragweed",[15]; [21],98
same,Ragweed plant response rating,[15]; [22],98
same,Ragweed plant response rating,[15]; [23],85
